Here are results for two compounds from a compilation of properties of binary mixtures (doi:10.1016/j.molliq.2016.09.008).

The nature of the data set: xn = mol fraction of the nth substance listed. Particulars: 298.15 K, 101 kPa.

For the compound `C[N+](=O)[O-]` + CC[NH3+].O=[N+]([O-])[O-], where the note is “x1 = 1”, the electrical conductivity is 0.0031 S/m and the viscosity is listed as 0.637 mPa·s.

As for `CC[NH3+].O=[N+]([O-])[O-]` + C[N+](=O)[O-], the electrical conductivity was 0.0549 S/m (x1 = 0.0034); 0.0721 S/m (x1 = 0.0062); 0.0945 S/m (x1 = 0.0112); 0.1 S/m (x1 = 0.0129); 2.34 S/m (x2 = 0.0498); 2.4 S/m (x2 = 0.1048). Besides, the electrical conductivity reads like this: (x2 = 0.2032) 2.56 S/m; (x2 = 0.3007) 2.7 S/m; (x2 = 0.3874) 2.94 S/m; (x2 = 0.4983) 2.71 S/m. This compound gave a viscosity (x1 = 0.0034) of 0.652 mPa·s; a viscosity (x1 = 0.0062) of 0.662 mPa·s; a viscosity (x1 = 0.0112) of 0.679 mPa·s; a viscosity (x1 = 0.0129) of 0.683 mPa·s; a viscosity (x2 = 0.0498) of 34.1 mPa·s; a viscosity (x2 = 0.1048) of 31.5 mPa·s. Also, the viscosity by setting is: (x2 = 0.2032) 23.9 mPa·s; (x2 = 0.3007) 20.3 mPa·s; (x2 = 0.3874) 15.3 mPa·s; (x2 = 0.4983) 8.52 mPa·s.
